Source: US8952024B2, “Herbicidal pyrimidone derivatives” (E I du Pont de Nemours and Company, priority 2009, dated 2015)

Key:
Type in all cases: in vivo
[1] = test system: barnyardgrass (Echinochloa crus-galli); test: Test A pre-/postemergence plant response; settings: for Barnyardgrass plant response rating: visual injury, 0 to 100 scale (0 no effect, 100 complete control), approx. ten days
Method in brief: (§1)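 Plants grown from seed in a loam soil and sand mix received test compounds both as a preemergence soil spray and, at the same time, as a postemergence spray at the one- to two-leaf stage. Injury was judged visually against untreated controls roughly ten days later, 0 meaning no effect and 100 complete control.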

corn (Zea mays) = test: Test A pre-/postemergence plant response; settings: for Corn plant response rating: visual injury, 0 to 100 scale (0 no effect, 100 complete control), approx. ten days
Method in brief: as §1

[2] = test system: giant foxtail (Setaria faberii); test: Test A pre-/postemergence plant response; settings: for Foxtail, Giant plant response rating: visual injury, 0 to 100 scale (0 no effect, 100 complete control), approx. ten days
Method in brief: as §1

[3] = test system: large crabgrass (Digitaria sanguinalis); test: Test A pre-/postemergence plant response; settings: for Crabgrass, Large plant response rating: visual injury, 0 to 100 scale (0 no effect, 100 complete control), approx. ten days
Method in brief: as §1

[4] = test system: morningglory (Ipomoea spp.); test: Test A pre-/postemergence plant response; settings: for Morningglory plant response rating: visual injury, 0 to 100 scale (0 no effect, 100 complete control), approx. ten days
Method in brief: as §1

[5] = test system: pigweed (Amaranthus retroflexus); test: Test A pre-/postemergence plant response; settings: for Pigweed plant response rating: visual injury, 0 to 100 scale (0 no effect, 100 complete control), approx. ten days
Method in brief: as §1

[6] = test system: velvetleaf (Abutilon theophrasti); test: Test A pre-/postemergence plant response; settings: for Velvetleaf plant response rating: visual injury, 0 to 100 scale (0 no effect, 100 complete control), approx. ten days
Method in brief: as §1

[7] = test system: wheat (Triticum aestivum); test: Test A pre-/postemergence plant response; settings: for Wheat plant response rating: visual injury, 0 to 100 scale (0 no effect, 100 complete control), approx. ten days
Method in brief: as §1

[8] = test system: barnyardgrass (Echinochloa crus-galli); test: Test B flooded paddy test; settings: for Plant response rating, Flood, Barnyardgrass: 250 g ai/ha, flooded paddy test, visual rating on 0 to 100 scale (0 no effect, 100 complete control) after 13 to 15 days; for Plant response rating, Barnyardgrass: Flood (flooded paddy test), 13 to 15 days; for Barnyardgrass plant response rating: Flood, 31 g ai/ha, scale 0 to 100 (0 no effect, 100 complete control)
Method in brief: (§2)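 Visual scores run from 0 (no effect) to 100 (complete control), assigned by comparison with controls 13 to 15 days after treatment. Test compounds went straight into water standing 3 cm above the soil, around plants at the 2-leaf stage kept in a greenhouse.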

[9] = test system: ducksalad (Heteranthera limosa); test: Test B flooded paddy test; settings: for Plant response rating, Flood, Ducksalad: 250 g ai/ha, flooded paddy test, visual rating on 0 to 100 scale (0 no effect, 100 complete control) after 13 to 15 days; for Plant response rating, Ducksalad: Flood (flooded paddy test), 13 to 15 days; for Ducksalad plant response rating: Flood, 31 g ai/ha, scale 0 to 100 (0 no effect, 100 complete control)
Method in brief: as §2

rice (Oryza sativa) = test: Test B flooded paddy test; settings: for Plant response rating, Flood, Rice: 250 g ai/ha, flooded paddy test, visual rating on 0 to 100 scale (0 no effect, 100 complete control) after 13 to 15 days; for Plant response rating, Rice: Flood (flooded paddy test), 13 to 15 days; for Rice plant response rating: Flood, 31 g ai/ha, scale 0 to 100 (0 no effect, 100 complete control)
Method in brief: as §2

[10] = test system: umbrella sedge (Cyperus difformis); test: Test B flooded paddy test; settings: for Plant response rating, Flood, Sedge, Umbrella: 250 g ai/ha, flooded paddy test, visual rating on 0 to 100 scale (0 no effect, 100 complete control) after 13 to 15 days; for Plant response rating, Sedge, Umbrella: Flood (flooded paddy test), 13 to 15 days; for Sedge, Umbrella plant response rating: Flood, 31 g ai/ha, scale 0 to 100 (0 no effect, 100 complete control)
Method in brief: as §2

[11] = Postemergence, 125 g ai/ha, 0 to 100 scale where 0 is no effect and 100 is complete control
[12] = Preemergence, 125 g ai/ha, 0 to 100 scale, 0 = no effect, 100 = complete control
[13] = Preemergence, 500 g ai/ha, 0 to 100 scale, 0 = no effect, 100 = complete control
[14] = 62 g ai/ha, scale of 0 to 100 where 0 is no effect and 100 is complete control
[15] = 125 g ai/ha, scale 0 to 100, 0 is no effect, 100 is complete control

COc1ccc(-n2c(-c3cccc(F)c3)ncc(C(=O)C3=C(O)CCCC3=O)c2=O)cc1 [Compound 203]
Plant response rating, Barnyardgrass [1, 11]: 80
Barnyardgrass plant response rating ([1]; Postemergence, 500 g ai/ha): 100
Plant response rating, Barnyardgrass [1, 12]: 30
Plant response rating, Barnyardgrass [1, 13]: 70
Plant response rating, Corn (corn (Zea mays); [11]): 0
Corn plant response rating (corn (Zea mays); Postemergence, 500 g ai/ha): 30
Plant response rating, Corn (corn (Zea mays); [12]): 0
Plant response rating, Corn (corn (Zea mays); [13]): 20
Plant response rating, Foxtail, Giant [2, 11]: 30
Foxtail, Giant plant response rating ([2]; Postemergence, 500 g ai/ha): 80
Plant response rating, Foxtail, Giant [2, 12]: 30
Plant response rating, Foxtail, Giant [2, 13]: 90
Plant response rating, Crabgrass, Large [3, 11]: 30
Crabgrass, Large plant response rating ([3]; Postemergence, 500 g ai/ha): 70
Plant response rating, Crabgrass, Large [3, 12]: 20
Plant response rating, Crabgrass, Large [3, 13]: 70
Plant response rating, Morningglory [4, 11]: 100
Morningglory plant response rating ([4]; Postemergence, 500 g ai/ha): 100
Plant response rating, Morningglory [4, 12]: 0
Plant response rating, Morningglory [4, 13]: 70
Plant response rating, Pigweed [5, 11]: 100
Pigweed plant response rating ([5]; Postemergence, 500 g ai/ha): 100
Plant response rating, Pigweed [5, 12]: 100
Plant response rating, Pigweed [5, 13]: 100
Plant response rating, Velvetleaf [6, 11]: 90
Velvetleaf plant response rating ([6]; Postemergence, 500 g ai/ha): 100
Plant response rating, Velvetleaf [6, 12]: 50
Plant response rating, Velvetleaf [6, 13]: 80
Plant response rating, Wheat [7, 11]: 0
Wheat plant response rating ([7]; Postemergence, 500 g ai/ha): 30
Plant response rating, Wheat [7, 12]: 0
Plant response rating, Wheat [7, 13]: 30
Plant response rating, Flood, Barnyardgrass [8]: 20
Plant response rating, Barnyardgrass [8, 14]: 0
Plant response rating, Barnyardgrass [8, 15]: 0
Barnyardgrass plant response rating [8]: 0
Plant response rating, Flood, Ducksalad [9]: 95
Plant response rating, Ducksalad [9, 14]: 75
Plant response rating, Ducksalad [9, 15]: 95
Ducksalad plant response rating [9]: 40
Plant response rating, Flood, Rice (rice (Oryza sativa)): 0
Plant response rating, Rice (rice (Oryza sativa); [14]): 0
Plant response rating, Rice (rice (Oryza sativa); [15]): 0
Rice plant response rating (rice (Oryza sativa)): 0
Plant response rating, Flood, Sedge, Umbrella [10]: 85
Plant response rating, Sedge, Umbrella [10, 14]: 65
Plant response rating, Sedge, Umbrella [10, 15]: 75
Sedge, Umbrella plant response rating [10]: 0

O=C1CCCC(O)=C1C(=O)c1cnc(-c2cccc(F)c2)n(CCC(F)(F)F)c1=O [Compound 208]
Plant response rating, Barnyardgrass [1, 11]: 30
Barnyardgrass plant response rating ([1]; Postemergence, 500 g ai/ha): 90
Plant response rating, Barnyardgrass [1, 12]: 10
Plant response rating, Barnyardgrass [1, 13]: 80
Plant response rating, Corn (corn (Zea mays); [11]): 0
Corn plant response rating (corn (Zea mays); Postemergence, 500 g ai/ha): 20
Plant response rating, Corn (corn (Zea mays); [12]): 0
Plant response rating, Corn (corn (Zea mays); [13]): 20
Plant response rating, Foxtail, Giant [2, 11]: 30
Foxtail, Giant plant response rating ([2]; Postemergence, 500 g ai/ha): 80
Plant response rating, Foxtail, Giant [2, 12]: 40
Plant response rating, Foxtail, Giant [2, 13]: 70
Plant response rating, Crabgrass, Large [3, 11]: 30
Crabgrass, Large plant response rating ([3]; Postemergence, 500 g ai/ha): 80
Plant response rating, Crabgrass, Large [3, 12]: 80
Plant response rating, Crabgrass, Large [3, 13]: 100
Plant response rating, Morningglory [4, 11]: 50
Morningglory plant response rating ([4]; Postemergence, 500 g ai/ha): 100
Plant response rating, Morningglory [4, 12]: 0
Plant response rating, Morningglory [4, 13]: 70
Plant response rating, Pigweed [5, 11]: 80
Pigweed plant response rating ([5]; Postemergence, 500 g ai/ha): 90
Plant response rating, Pigweed [5, 12]: 60
Plant response rating, Pigweed [5, 13]: 100
Plant response rating, Velvetleaf [6, 11]: 100
Velvetleaf plant response rating ([6]; Postemergence, 500 g ai/ha): 100
Plant response rating, Velvetleaf [6, 12]: 60
Plant response rating, Velvetleaf [6, 13]: 90
Plant response rating, Wheat [7, 11]: 0
Wheat plant response rating ([7]; Postemergence, 500 g ai/ha): 10
Plant response rating, Wheat [7, 12]: 0
Plant response rating, Wheat [7, 13]: 20
Plant response rating, Flood, Barnyardgrass [8]: 25
Plant response rating, Barnyardgrass [8, 14]: 0
Plant response rating, Barnyardgrass [8, 15]: 15
Barnyardgrass plant response rating [8]: 0
Plant response rating, Flood, Ducksalad [9]: 75
Plant response rating, Ducksalad [9, 14]: 30
Plant response rating, Ducksalad [9, 15]: 40
Ducksalad plant response rating [9]: 0
Plant response rating, Flood, Rice (rice (Oryza sativa)): 0
Plant response rating, Rice (rice (Oryza sativa); [14]): 0
Plant response rating, Rice (rice (Oryza sativa); [15]): 0
Rice plant response rating (rice (Oryza sativa)): 0
Plant response rating, Flood, Sedge, Umbrella [10]: 70
Plant response rating, Sedge, Umbrella [10, 14]: 40
Plant response rating, Sedge, Umbrella [10, 15]: 40
Sedge, Umbrella plant response rating [10]: 0
